Data on one compound can be found in patent US4943581A, “Isoquinolinesulfonamides” (Hokuriku Pharmaceutical Co., Ltd., priority 1988, dated 1990).

Structures can show the parent of a compound that is named as a salt.

In experiment [1] the test system is smooth muscle of the blood vessel (superior mesenteric artery). The experiment is described as follows: Relaxation effect on smooth muscle of blood vessel (spiral specimen of superior mesenteric artery contracted with 20 mM KCl). Conditions: Oryctolagus cuniculus; concentration giving 50% relaxation; contraction induced by 20 mM KCl taken as 100%; 37°±0.5° C.; rabbit superior mesenteric artery; read-out: ED50 (the source's name). The procedure:
The extracted blood vessels were cut in the usual way into the form of spirals, and a specimen of 1.5-2.5 mm in width and 20-30 mm in length was formed. The spiral specimen was suspended in 20 ml organ bath comprising Krebs-Henseleit's solution, after which a tension of 2.0-0.5 g was loaded. The nutrient solution was warmed at 37°±0.5° C. and ventilated by mixed gas of 95% oxygen and 5% carbon dioxide. The lower end was fixed, whereas the upper end was attached to a force-displacement transducer (SB-1T) manufactured by Nihon Koden Company. The change of tension was recorded isometrically. The specimen was suspended for at least 60 minutes before the test was begun, and the nutrient solution was exchanged every 15 minutes to conduct the experiment in the meantime.
The relaxation effect upon the smooth muscle of the blood vessel was tested. Previously, the spiral specimen had been contracted with 20 mM of KCl and maintained at a certain tension; thereafter the test agent was added cumulatively. Contraction induced by 20 mM KCl was taken as 100% and the relaxation effect of the test agent was represented by ED50 which was the concentration of the agent at which only 50% of the muscles remained shrunken.

The target in experiment [2] is T1, myosin light-chain kinase (Gallus gallus, UniProt P11799).
T1 construct: myosin light chain kinase (prepared from the smooth muscles of chicken gizzard); from tissue; host or cells: smooth muscle of chicken gizzard (kinase); cattle brain (calmodulin)
T1 sequence (P11799 935-1906): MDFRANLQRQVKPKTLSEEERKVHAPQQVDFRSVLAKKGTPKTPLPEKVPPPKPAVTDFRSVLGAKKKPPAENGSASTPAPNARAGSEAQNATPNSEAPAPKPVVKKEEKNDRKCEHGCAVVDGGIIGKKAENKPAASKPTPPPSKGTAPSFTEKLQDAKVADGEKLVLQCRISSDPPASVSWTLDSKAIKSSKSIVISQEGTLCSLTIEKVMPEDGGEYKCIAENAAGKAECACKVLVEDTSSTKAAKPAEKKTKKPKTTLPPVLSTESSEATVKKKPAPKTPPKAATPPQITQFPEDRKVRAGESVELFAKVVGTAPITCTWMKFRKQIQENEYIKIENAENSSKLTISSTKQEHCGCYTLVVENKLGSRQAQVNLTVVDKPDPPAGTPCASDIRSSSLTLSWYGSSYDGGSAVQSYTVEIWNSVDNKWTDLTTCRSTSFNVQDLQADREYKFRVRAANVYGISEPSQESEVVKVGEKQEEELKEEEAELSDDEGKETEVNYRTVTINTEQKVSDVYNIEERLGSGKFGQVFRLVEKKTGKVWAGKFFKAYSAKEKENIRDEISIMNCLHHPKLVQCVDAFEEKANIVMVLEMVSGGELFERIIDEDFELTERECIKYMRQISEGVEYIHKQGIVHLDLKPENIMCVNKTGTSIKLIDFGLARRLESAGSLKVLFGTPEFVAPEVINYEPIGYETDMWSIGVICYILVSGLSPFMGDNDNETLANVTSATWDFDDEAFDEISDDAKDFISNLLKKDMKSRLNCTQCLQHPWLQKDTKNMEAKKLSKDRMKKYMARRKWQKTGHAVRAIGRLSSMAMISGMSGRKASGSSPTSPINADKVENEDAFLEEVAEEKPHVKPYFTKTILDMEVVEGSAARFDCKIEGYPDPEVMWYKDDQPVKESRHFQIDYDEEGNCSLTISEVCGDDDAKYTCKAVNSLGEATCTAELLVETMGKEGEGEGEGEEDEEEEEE
The experiment is described as follows: Inhibition of myosin light-chain kinase (32P incorporation from [γ-32P] ATP into myosin light chain). Format: biochemical. Conditions: enzymatic activity depression of 50%; chicken gizzard; 200 μM CaCl2, 80 ng calmodulin, pH 7.0, 30 °C. The protocol: A myosin light chain of the smooth muscles of chicken gizzard was used as a substrate and the amount of radioactive phosphoric acid incorporated from [γ-32P] ATP into the substrate-protein was measured for a determination of the activity of the enzyme. The reaction solution, in an amount of 200 μl as a whole, was constituted from 25 mM of Tris-HCl(pH 7.0), 10 mM MgCl2, 40 μg of myosin light chain (obtained by preparing myosin from the smooth muscle of chicken gizzard followed by guanidine denaturization), 200 μM of CaCl2, 80 ng of calmodulin (prepared from cattle brain), myosin light chain kinase (prepared from the smooth muscles of chicken gizzard), and agents of various concentrations. The reaction was started by the addition of 20 μl of 100 μM [γ-32P] ATP at 30 ° C., and stopped by the addition of 0.5 ml of 20% TCA. After the reaction was stopped, 3 ml of 5% TCA and 0.1 ml of 1 mg/ml albumin solution were added into the reaction mixture, the resulting solution was centrifuged, and the obtained acid-insoluble protein was fixed on the bottom of a test tube. Further, the supernatant was removed, 3 ml of 5% TCA was added into the residue, and the solution was centrifuged. […] The precipitated protein was dissolved with 2 ml of 1 N NaOH, transferred to a vial containing about 10 ml of water, and measured for Cherenkov effect by a liquid scintillation counter. […]

On to `NCCNS(=O)(=O)c1ccc(Cl)c2ccncc12` [Example 1, N-(2-Aminoethyl)-5-chloroisoquinoline-8-sulfonamide 2 hydrochloride], for which, in experiment [1], the EC50 was 32 µM. 31 µM corresponded to half-maximal inhibition in experiment [2] (IC50).
